# Experimental data from patent publication US4740233A, “Substituted 1,2,4-triazolo[1,5-a]-pyrimidine-2-sulfonamides and compositions and methods of controlling undesired vegetation and suppressing the nitrification of ammonium nitrogen in soil” (The Dow Chemical Company, priority 1986, dated 1988).
# Key:
# [1] = system: yellow nutsedge; assay: Control of aquatic plant species (paddy water); format: in vivo, Cyperus esculentus; conditions: Cyperus, 216 h, nine days, read-out: Percent control; for pest or weed control at 500 g/ha: 0.5 Kg/Ha
# Protocol: (§1) In testing for such utility, the plant species to be tested were transplanted into 16 oz. containers into about 2 inches of soil when they were in the 1-2 inch stage and then flooded to a depth of about 1 inch. An acetone concentrate of the chemical to be tested was then injected into the paddy water, the volume injected being varied as desired to provide the desired concentration. Percent control was evaluated nine days after application.
# [2] = system: barnyardgrass; assay: Control of aquatic plant species (paddy water); format: in vivo, Echinochloa crusgalli; conditions: Echinochloa crus-galli, 216 h, nine days, read-out: Percent control; for pest or weed control at 500 g/ha: 0.5 Kg/Ha
# Protocol: as §1
# [3] = system: rice; assay: Control of aquatic plant species (paddy water); format: in vivo, Oryza sativa; conditions: Oryza sativa, 216 h, nine days, read-out: Percent control; for pest or weed control at 500 g/ha: 0.5 Kg/Ha
# Protocol: as §1
# [4] = system: sprangletop; assay: Control of aquatic plant species (paddy water); format: in vivo, Leptochloa filiformis; conditions: Leptochloa filiformis, 216 h, nine days, read-out: Percent control; for pest or weed control at 500 g/ha: 0.5 Kg/Ha
# Protocol: as §1
# [5] = system: nitrification of ammonium nitrogen; assay: Suppression of nitrification of ammonium nitrogen in soil; conditions: 27° C.
# In short: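 Soil (20 g) moistened to its 1/3 bar tension value, mixed with test chemical and incubated sealed for two weeks at 27° C. Nitrate extracted with ammonium sulfate solution and measured by nitrate-specific ion electrode; value given as % NH4-N remaining.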
Structure (SMILES),pest or weed control at 500 g/ha [1] [%],pest or weed control at 500 g/ha [2] [%],pest or weed control at 500 g/ha [3] [%],pest or weed control at 500 g/ha [4] [%],% NH4-N Remaining After 2 Weeks Incubation ([5]; 0.01 ppm) [%],% NH4-N Remaining After 2 Weeks Incubation ([5]; 0.1 ppm) [%],% NH4-N Remaining After 2 Weeks Incubation ([5]; 1 ppm) [%],% NH4-N Remaining After 2 Weeks Incubation ([5]; 10 ppm) [%],% NH4-N Remaining After 2 Weeks Incubation ([5]; 0.06 ppm) [%],% NH4-N Remaining After 2 Weeks Incubation ([5]; 0.25 ppm) [%],further results
Cc1cc(C)n2nc(S(=O)(=O)Nc3c(C)cccc3[N+](=O)[O-])nc2n1 [Compound 49],99,97,97,97,42,77,90,99,,,pest or weed control at 16 g/ha ([1]; 0.016 Kg/Ha): 95%; pest or weed control at 16 g/ha ([2]; 0.016 Kg/Ha): 50%; pest or weed control at 16 g/ha ([3]; 0.016 Kg/Ha): 0%; pest or weed control at 16 g/ha ([4]; 0.016 Kg/Ha): 0%
Cc1cc(C)n2nc(S(=O)(=O)Nc3ccccc3C)nc2n1 [Compound 2],,,,,0,0,39,78,,,pest or weed control at 2000 g/ha ([1]; 2.0 Kg/Ha): 93%; pest or weed control at 2000 g/ha ([2]; 2.0 Kg/Ha): 97%; pest or weed control at 2000 g/ha ([3]; 2.0 Kg/Ha): 97%; pest or weed control at 2000 g/ha ([4]; 2.0 Kg/Ha): 99%
CSc1ccccc1NS(=O)(=O)c1nc2nc(C)cc(C)n2n1 [Compound 9],,,,,0,14,59,88,,,pest or weed control at 250 g/ha ([1]; 0.25 Kg/Ha): 30%; pest or weed control at 1000 g/ha ([1]; 1.0 Kg/Ha): 85%; pest or weed control at 250 g/ha ([2]; 0.25 Kg/Ha): 93%; pest or weed control at 1000 g/ha ([2]; 1.0 Kg/Ha): 99%; pest or weed control at 250 g/ha ([3]; 0.25 Kg/Ha): 0%; pest or weed control at 1000 g/ha ([3]; 1.0 Kg/Ha): 25%; pest or weed control at 250 g/ha ([4]; 0.25 Kg/Ha): 80%; pest or weed control at 1000 g/ha ([4]; 1.0 Kg/Ha): 97%
Cc1cc(C)n2nc(S(=O)(=O)Nc3c(F)cccc3Cl)nc2n1 [Compound 54],95,97,97,0,,,66,,20,51,% NH4-N Remaining After 2 Weeks Incubation ([5]; 4 ppm): 76%
Cc1cc(C)n2nc(S(=O)(=O)Nc3ccccc3S(=O)(=O)N(C)C)nc2n1 [Compound 15],,,,,,,54,,1,23,pest or weed control at 4000 g/ha ([1]; 4.0 Kg/Ha): 70%; pest or weed control at 4000 g/ha ([2]; 4.0 Kg/Ha): 25%; pest or weed control at 4000 g/ha ([3]; 4.0 Kg/Ha): 35%; pest or weed control at 4000 g/ha ([4]; 4.0 Kg/Ha): 0%; % NH4-N Remaining After 2 Weeks Incubation ([5]; 0.125 ppm): 0%; % NH4-N Remaining After 2 Weeks Incubation ([5]; 0.5 ppm): 42%
